Data on four molecules can be found in paper PMC11779861 (Scientific Reports, 2025).

The conditions of data set [1]: cited from earlier work.
Data set [2] has as its system ARPE-19 human retinal cells. In words: MTS cell growth assay. The following applies: read-out: IC50 (cell growth). The data set is classed as cell-based. In general terms: Tetrazolium assays rely on reduction of a dye to a coloured formazan, in cell work by metabolically active cells.
In data set [3] the test system is Human Induced Pluripotent Stem Cell (hiPSC)-Derived Cardiomyocytes.
Another data set concerns hiPSC-CMs. In words: Extracellular lactate dehydrogenase. The data set is classed as cell-based, human. The following applies: 48-hour treatment.
The subject of another data set is hiPSC-CM cell monolayer. Briefly: Cell health index: cardiomyocyte cell monolayer assessment. The data set is classed as cell-based, human.

pIC50: −log10 of the molar value. Like-named read-outs stand apart in the source and are kept apart here.

A word on the pIC50: it is the IC50 on a negative log10 scale, so that one unit is a factor of ten. With `CCc1cc(C(N)=O)ccc1-n1nc(C(C)C)c2c(-n3cnc(-c4cnn(C)c4)c3)ccnc21` [TAS-116], the “ocular toxicities in vivo” value in data set [1] is given as “avoid any ocular toxicities in vivo”. Also, the negative-log IC50 (pIC50) in data set [2] (Homo sapiens, ARPE-19, 48 h) was 6.35.
`C=CCNC1=C2C[C@@H](C)C[C@H](OC)[C@H](O)[C@@H](C)/C=C(\C)[C@H](OC(N)=O)[C@@H](OC)/C=C\C=C(/C)C(=O)NC(=CC1=O)C2=O` [17-AAG]: the pIC50 in data set [2] (ARPE-19, 48 hr, MTS, Avg ± SD, N = 3 biological replicates) was 7.70. The quiescence is listed as 1/8 in data set [3] (0.25 µM, 48 h); 1/8 in data set [3] (2.5 µM, 24 h); 6/8 in data set [3] (2.5 µM, 48 h); 8/8 in data set [3] (10 µM, 24 h); 8/8 in data set [3] (10 µM, 48 h); 8/8 in data set [3] (50 µM, 24 h). In data set [3] (50 µM, 48 h), the quiescence is recorded as 8/8. The “cardiomyocyte function / cardio-toxicity (in words)” value in data set [3] (24 h) is reported as “severe dysregulation of cardiomyocyte function”. In addition, the “extracellular LDH (in words)” value in the data set with hiPSC-CMs is listed as “highly dose-dependently toxic”.
On to `CCNC(=O)c1noc(-c2cc(C(C)C)c(O)cc2O)c1-c1ccc(CN2CCOCC2)cc1` [NVP AUY922], for which, in data set [2] (Homo sapiens, ARPE-19, 48 h), the pIC50 is above 8.00.
Take `COc1cccc2c1C(=O)c1c(O)c3c(c(O)c1C2=O)C[C@@](O)(C(=O)CO)C[C@@H]3O[C@H]1C[C@H](N)[C@H](O)[C@H](C)O1` [Doxorubicin]: the “effect on the cell monolayer (in words)” value in the data set on hiPSC-CM cell monolayer was “greater monolayer damage at both 24 and 48 h”. Further, the electrical quiescence in data set [3] (0.3 µM, 30 min) is on record as 1/8. Further, the “cardiomyocyte function / cardio-toxicity (in words)” value in data set [3] (24 h) was “largely had no effect on electrophysiology”.
